Data: US8338565B2, “Macrocyclic compounds for inhibition of tumor necrosis factor alpha” (Ensemble Therapeutics Corporation, priority 2008, dated 2012)
pIC50: −log10 of the molar value. Read-outs that look alike come from different tables or passages of the source. Numbered stars: 1 amine (or outer) side, 2 acyl side, 3 side chain; on linkers, the order of the positions; unused ones are H or OH. Bridge positions count the residues as written; N and C are the ends. Square brackets hold non-standard residues; d marks the D form. Peptide text beside a SMILES is read from it. * marks the point of attachment. Phe(4-CF3) = N[C@@H](Cc1ccc(C(F)(F)F)cc1)C(=O)O; dPhe(3-CF3) = N[C@H](Cc1cccc(C(F)(F)F)c1)C(=O)O; Phe(4-COOH) = N[C@@H](Cc1ccc(C(=O)O)cc1)C(=O)O; Bip = N[C@@H](Cc1ccc(-c2ccccc2)cc1)C(=O)O; dBip = N[C@H](Cc1ccc(-c2ccccc2)cc1)C(=O)O; dPhe(4-NH2) = Nc1ccc(C[C@@H](N)C(=O)O)cc1; Phe(4-NH2) = Nc1ccc(C[C@H](N)C(=O)O)cc1; dPhe(2-Cl) = N[C@H](Cc1ccccc1Cl)C(=O)O; d(hPhe) = N[C@H](CCc1ccccc1)C(=O)O; Igl = N[C@H](C(=O)O)C1Cc2ccccc2C1; hPhe = N[C@@H](CCc1ccccc1)C(=O)O; d2Thi = N[C@H](Cc1cccs1)C(=O)O; Suc = O=C(CCC(=O)[*:2])[*:1]; Ac3c = NC1(C(=O)O)CC1; X1 = O=C(O)C1CCN(*)C1; Ava = NCCCCC(=O)O; βAla = NCCC(=O)O

Molecular target: T1, TNFα / TNFα receptor (TNFα R1/Fc) (Homo sapiens, UniProt P01375)
T1 construct: purchased R&D Systems
Test: Inhibition of binding of TNFα to the TNFα receptor (plate ELISA competition)
Settings: Table 2
Summary of the method: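 Plates were coated with TNFα at 15 nM. Test compound and 8.33 nM receptor-Fc (PBST, 2% DMSO) were first mixed in solution for 30 min at room temperature, then transferred to the plates for another 30 min. Competition was read by absorbance at 450 nm after HRP anti-human IgG Fc detection with TMB.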

[1] = read-out: Activity (IC50, inhibition of TNFα binding to TNFα R1/Fc)

T1 sequence (P01375 77-233 limits assumed, species assumed): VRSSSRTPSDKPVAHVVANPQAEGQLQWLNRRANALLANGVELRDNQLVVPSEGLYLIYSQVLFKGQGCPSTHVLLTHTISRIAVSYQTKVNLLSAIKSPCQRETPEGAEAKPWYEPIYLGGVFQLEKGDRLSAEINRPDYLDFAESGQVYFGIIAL

Row | Structure (SMILES) | pIC50 [1] | pIC50 (Activity (IC50, inhibition of TNFα binding to TNFα R1/Fc))
1 | O=C1COc2ccc(cc2)C[C@@H](C(=O)O)NC(=O)[C@H](Cc2ccccc2)NC(=O)[C@@H](Cc2ccc(C(F)(F)F)cc2)NC(=O)[C@H](Cc2cccs2)N1 [Compound 397] | < 4.00 | –
2 | O=C1CCC(=O)N[C@H](Cc2cccs2)C(=O)N[C@@H](C2Cc3ccccc3C2)C(=O)N[C@H](Cc2ccccc2)C(=O)N[C@H](C(=O)O)Cc2ccc(cc2)N1 [Compound 99] ([d2Thi][Igl][dF][Phe(4-NH2)]-OH; linker N-4 via Suc) | < 4.00 | –
3 | O=C1COc2ccc(cc2)C[C@@H](C(=O)O)NC(=O)[C@H](CCc2ccccc2)NC(=O)[C@@H](Cc2ccc(-c3ccccn3)cc2)NC(=O)[C@H](Cc2cccnc2)N1 [Compound 663] | < 4.00 | –
4 | O=C1COc2ccc(cc2)C[C@H](C(=O)N[C@H](CCc2ccccc2)C(=O)O)NC(=O)[C@H](Cc2c[nH]c3ccccc23)NC(=O)[C@@H](Cc2ccc(-c3ccccc3)cc2)NC(=O)[C@H](Cc2c[nH]c3ccccc23)N1 [Compound 739] | > 5.00 | –
5 | O=C1CCC(=O)N[C@H](Cc2cccs2)C(=O)N[C@@H](Cc2ccc(-c3ccccc3)cc2)C(=O)N[C@H](CCc2ccccc2)C(=O)N[C@H](C(=O)NC2(C(=O)O)CC2)Cc2ccc(cc2)N1 [Compound 451] ([d2Thi][Bip][d(hPhe)][Phe(4-NH2)][Ac3c]-OH; linker N-4 via Suc) | 4.00 to 4.52 | –
6 | O=C1COc2ccc(cc2)C[C@@H](C(=O)O)NC(=O)[C@H](CCc2ccccc2)NC(=O)[C@@H](Cc2ccc(-c3ccccc3)cc2)NC(=O)[C@H](Cc2ccc(-c3ccncc3)cc2)N1 [Compound 684] | > 5.00 | –
7 | O=C1CCC(=O)N[C@H](Cc2cccs2)C(=O)N[C@H](Cc2ccc(-c3ccccc3)cc2)C(=O)N[C@H](Cc2ccccc2)C(=O)N[C@@H](C(=O)O)Cc2ccc(cc2)N1 [Compound 498] ([d2Thi][dBip][dF][dPhe(4-NH2)]-OH; linker N-4 via Suc) | < 4.00 | –
8 | O=C1COc2ccc(cc2)C[C@@H](C(=O)O)NC(=O)[C@@H](CCc2ccccc2)NC(=O)[C@H](Cc2ccc(-c3ccccc3)cc2)NC(=O)[C@@H](Cc2ccc(C(F)(F)F)cc2)N1 [Compound 150] | 4.00 to 4.52 | –
9 | O=C1CCC(=O)N[C@H](CCc2ccccc2)C(=O)N[C@@H](Cc2ccc(C(F)(F)F)cc2)C(=O)N[C@H](Cc2ccccc2Cl)C(=O)N[C@H](C(=O)O)Cc2ccc(cc2)N1 [Compound 226] ([d(hPhe)][Phe(4-CF3)][dPhe(2-Cl)][Phe(4-NH2)]-OH; linker N-4 via Suc) | 4.52 to 5.00 | –
10 | CC(C)(C)OC(=O)CC[C@@H]1NC(=O)[C@@H](Cc2ccc(-c3ccccc3)cc2)NC(=O)[C@H](Cc2cccs2)NC(=O)COc2ccc(cc2)C[C@@H](C(=O)O)NC1=O [Compound 349] | 4.52 to 5.00 | –
11 | COc1ccc(C[C@H]2NC(=O)CCC(=O)Nc3ccc(cc3)C[C@@H](C(=O)O)NC(=O)[C@@H](Cc3ccccc3)NC(=O)[C@H](Cc3ccc(C(F)(F)F)cc3)NC2=O)cc1 [Compound 162] ([dY](Me)[Phe(4-CF3)][dF][Phe(4-NH2)]-OH; linker N-4 via Suc) | < 4.00 | –
12 | O=C1CCC(=O)N[C@H](CCc2ccccc2)C(=O)N[C@@H](Cc2ccc(-c3cccc(O)c3)cc2)C(=O)N[C@H](Cc2ccccc2)C(=O)N[C@H](C(=O)O)Cc2ccc(cc2)N1 [Compound 169] | < 4.00 | –
13 | O=C(O)CNC(=O)CNC(=O)[C@@H]1Cc2ccc(cc2)OCC(=O)N[C@@H](Cc2cccs2)C(=O)N[C@H](Cc2ccc(-c3ccccc3)cc2)C(=O)N[C@@H](CCc2ccccc2)C(=O)N1 [Compound 479] | > 5.00 | –
14 | O=C1CCC(=O)N[C@H](Cc2cccc(C(F)(F)F)c2)C(=O)N[C@@H](Cc2ccc(C(F)(F)F)cc2)C(=O)N[C@H](Cc2ccccc2)C(=O)N[C@H](C(=O)O)Cc2ccc(cc2)N1 [Compound 166] ([dPhe(3-CF3)][Phe(4-CF3)][dF][Phe(4-NH2)]-OH; linker N-4 via Suc) | 4.00 to 4.52 | –
15 | COC(=O)[C@@H]1Cc2ccc(cc2)NC(=O)CCC(=O)N[C@H](Cc2cccs2)C(=O)N[C@@H](Cc2ccc(-c3ccccc3)cc2)C(=O)N[C@H](Cc2ccccc2)C(=O)N1 [Compound 192] ([d2Thi][Bip][dF][Phe(4-NH2)]-OMe; linker N-4 via Suc) | > 5.00 | –
16 | N[C@@H]1CC(=O)Nc2ccc(cc2)C[C@@H](C(=O)O)NC(=O)[C@@H](Cc2ccccc2)NC(=O)[C@H](Cc2ccc(-c3ccccc3)cc2)NC(=O)[C@@H](Cc2cccs2)NC1=O [Compound 372] (H-[dD][d2Thi][Bip][dF][Phe(4-NH2)]-OH; lactam 1-5) | < 4.00 | –
17 | O=C1COc2ccc(cc2)C[C@@H](C(=O)N[C@@H](Cc2ccccc2)C(=O)O)NC(=O)[C@H](CCc2ccccc2)NC(=O)[C@@H](Cc2ccc(-c3ccccc3)cc2)NC(=O)[C@H](Cc2ccc(-c3ccncc3)cc2)N1 [Compound 581] | > 5.00 | –
18 | O=C(O)CCNC(=O)[C@@H]1Cc2ccc(cc2)NC(=O)[C@H](O)[C@@H](O)C(=O)N[C@H](Cc2cccs2)C(=O)N[C@@H](Cc2ccc(-c3ccccc3)cc2)C(=O)N[C@H](CCc2ccccc2)C(=O)N1 [Compound 401] | > 5.00 | –

Row | Structure (SMILES) | pIC50 [1] | pIC50 (Activity (IC50, inhibition of TNFα binding to TNFα R1/Fc))
19 | CN1C(=O)COc2ccc(cc2)C[C@@H](C(=O)N[C@H](CCc2ccccc2)C(=O)O)NC(=O)[C@H](Cc2c[nH]c3ccccc23)NC(=O)[C@@H](Cc2ccc(-c3ccccc3)cc2)NC(=O)[C@@H]1Cc1c[nH]c2ccccc12 [Compound 747] | > 5.00 | –
20 | O=C(O)CNC(=O)[C@@H]1Cc2ccc(cc2)NC(=O)CCC(=O)N[C@H](Cc2ccccc2)C(=O)N[C@@H](Cc2ccc(-c3ccccc3)cc2)C(=O)N[C@H](CCc2ccccc2)C(=O)N1 [Compound 462] ([dF][Bip][d(hPhe)][Phe(4-NH2)]G-OH; linker N-4 via Suc) | < 4.00 | –
21 | O=C1COc2ccc(cc2)C[C@@H](C(=O)O)NC(=O)[C@H](Cc2ccccc2)NC(=O)[C@H](Cc2ccc(Cl)cc2Cl)NC(=O)[C@H](Cc2cccs2)N1 [Compound 367] | < 4.00 | –
22 | O=C1COc2ccc(cc2)C[C@@H](C(=O)O)NC(=O)[C@H](Cc2cccc(C(F)(F)F)c2)NC(=O)[C@@H](Cc2ccc(-c3ccccc3)cc2)NC(=O)[C@H](Cc2ccncc2)N1 [Compound 648] | > 5.00 | –
23 | CN(C(=O)[C@@H]1Cc2ccc(cc2)OCC(=O)N[C@@H](Cc2cccs2)C(=O)N[C@H](Cc2ccc(-c3ccccc3)cc2)C(=O)N[C@@H](CCc2ccccc2)C(=O)N1)[C@@H](Cc1ccccc1)C(=O)O [Compound 621] | – | > 5.00
24 | CC(=O)Nc1ccc(C[C@H](NC(=O)[C@@H]2Cc3ccc(cc3)NC(=O)CCC(=O)N[C@H](CCc3ccccc3)C(=O)N[C@@H](Cc3ccc(-c4ccccc4)cc3)C(=O)N[C@H](Cc3ccccc3)C(=O)N2)C(=O)O)cc1 [Compound 528] ([d(hPhe)][Bip][dF][Phe(4-NH2)][Phe(4-NH2)](Ac)-OH; linker N-4 via Suc) | > 5.00 | –
25 | O=C1CCNC(=O)c2ccc(cc2)C[C@@H](C(=O)O)NC(=O)[C@H](Cc2ccccc2)NC(=O)[C@@H](Cc2ccc(-c3ccccc3)cc2)NC(=O)[C@H](CCc2ccccc2)N1 [Compound 465] ([βAla][hPhe][dBip]F[Phe(4-COOH)]-OH; lactam N-5) | > 5.00 | –
26 | O=C1COc2ccc(cc2)C[C@@H](C(=O)O)NC(=O)[C@@H](CCc2ccccc2)NC(=O)[C@H](Cc2ccc(Cl)cc2Cl)NC(=O)[C@@H](CCc2ccccc2)N1 [Compound 149] | 4.52 to 5.00 | –
27 | O=C(O)[C@@H]1Cc2ccc(cc2)NC(=O)[C@H](O)[C@@H](O)C(=O)N[C@H](Cc2cccs2)C(=O)N[C@@H](Cc2ccc(-c3ccccc3)cc2)C(=O)N[C@H](Cc2ccccc2Cl)C(=O)N1 [Compound 286] | 4.52 to 5.00 | –
28 | O=C(O)C[C@H](NC(=O)[C@@H]1Cc2ccc(cc2)NC(=O)CCC(=O)N[C@H](Cc2cccs2)C(=O)N[C@@H](Cc2ccc(-c3ccccc3)cc2)C(=O)N[C@H](Cc2ccccc2)C(=O)N1)C(=O)O [Compound 27] ([d2Thi][Bip][dF][Phe(4-NH2)]D-OH; linker N-4 via Suc) | < 4.00 | –
29 | O=C1COc2ccc(cc2)C[C@@H](C(=O)O)NC(=O)[C@@H](Cc2ccc(-c3ccccc3)cc2)NC(=O)[C@H](Cc2ccc(-c3ccccc3)cc2)NC(=O)[C@@H](Cc2cccs2)N1 [Compound 530] | < 4.00 | –
30 | O=C1COc2ccc(cc2)C[C@@H](C(=O)O)NC(=O)[C@H](CCc2ccccc2)NC(=O)[C@@H](Cc2ccc(-c3ccccc3)cc2)NC(=O)[C@H](Cc2ccccc2F)N1 [Compound 677] | > 5.00 | –
31 | O=C(O)CCCCNC(=O)[C@@H]1Cc2ccc(cc2)NC(=O)CCC(=O)N[C@H](Cc2ccccc2)C(=O)N[C@@H](Cc2ccc(-c3ccccc3)cc2)C(=O)N[C@H](CCc2ccccc2)C(=O)N1 [Compound 461] ([dF][Bip][d(hPhe)][Phe(4-NH2)][Ava]-OH; linker N-4 via Suc) | < 4.00 | –
32 | O=C1CCC(=O)N[C@H](CCc2ccccc2)C(=O)N[C@@H](Cc2ccc(-c3ccccc3)cc2)C(=O)N[C@H](Cc2ccccc2)C(=O)N[C@H](C(=O)N2CCC(C(=O)O)C2)Cc2ccc(cc2)N1 (stereo partly drawn) [Compound 353] ([d(hPhe)][Bip][dF][Phe(4-NH2)]-X1; linker N-4 via Suc) | < 4.00 | –
33 | COc1cccc(C[C@@H]2NC(=O)COc3ccc(cc3)C[C@@H](C(=O)O)NC(=O)[C@H](CCc3ccccc3)NC(=O)[C@@H](Cc3ccc(-c4ccccc4)cc3)NC2=O)c1 [Compound 680] | > 5.00 | –
34 | O=C(O)[C@@H]1Cc2ccc(cc2)NC(=O)[C@H](O)[C@@H](O)C(=O)N[C@H](Cc2cccs2)C(=O)N[C@H](Cc2ccc(-c3ccccc3)cc2)C(=O)N[C@@H](Cc2ccccc2)C(=O)N1 [Compound 274] | < 4.00 | –
35 | O=C(O)[C@H](Cc1cccnc1)NC(=O)[C@@H]1Cc2ccc(cc2)NC(=O)[C@H](O)[C@@H](O)C(=O)N[C@H](Cc2cccs2)C(=O)N[C@@H](Cc2ccc(-c3ccccc3)cc2)C(=O)N[C@H](CCc2ccccc2)C(=O)N1 [Compound 405] | < 4.00 | –
36 | O=C(O)CCCNC(=O)[C@H]1Cc2ccc(cc2)OCC(=O)N[C@@H](Cc2c[nH]c3ccccc23)C(=O)N[C@H](Cc2ccc(-c3ccccc3)cc2)C(=O)N[C@@H](Cc2c[nH]c3ccccc23)C(=O)N1 [Compound 716] | > 5.00 | –
